According to PMC12797238 (ACS Infectious Diseases, 2025):

How the values were obtained:
[1] = test system: Toxoplasma tachyzoites mitochondrion; test: Toxoplasma mitochondrial membrane potential (MitoTracker, cytometry and microscopy); type: cell-based, Toxoplasma gondii; conditions: 24 h at 3× EC50; for Mitotracker staining of T. gondii, microscopic observation: FCCP as uncoupler control
Protocol: We used the MitoTracker Deep Red FM fluorescent probe (Invitrogen) to assess the mitochondrial membrane potential in Toxoplasma tachyzoites. […] After another 24 h of culture at 37 °C and 5% CO2, Mitotracker labeling was performed as described in the protocol provided by the manufacturer, with a 45 min incubation at 37 °C and 5% CO2 of the reconstituted dye diluted to 1/1000 in culture medium. Parasites were then fixed for 30 min in 4% (w/v) PFA (diluted in PBS), washed twice in PBS, scraped, syringed (with a 25 G needle), filtered on a 40 μm membrane, and resuspended in 1 mL of PBS. Parasites were then analyzed with an Aurora spectral cytometer (Cytek), using a 633 nm excitation laser and a 665 nm detector. 10,000 events were recorded. Mean fluorescence was plotted against vehicle-treated culture parasites using Prism 8.0 (GraphPad Software), and statistical significance was determined using one-way ANOVA with Tukey’s multiple-comparison test. The experiment was performed for three biologically independent replicates. For the membrane depolarization control, parasites were treated with 10 μM FCCP for 30 min prior to and during incubation with the Mitotracker dye.
Intracellular parasites and the host cell monolayer were then fixed 24 h later with 4% (w/v) PFA (diluted in PBS) for 20 min, and after fixation, cells were permeabilized with 0.3% (v/v) Triton X-100 (diluted in PBS) for 10 min. Costaining with the anti-F1β ATPase mitochondrial marker was performed as described below.

Human BJ Fibroblast = test: Drug sensitivity assay, dose–response curves, human BJ fibroblasts; type: cell-based; conditions: mean, n ≥ 3
Text: (§1) Human fibroblasts, T. brucei, T. gambiense, P. falciparum, L. mexicana, and B. divergens were cultivated as described previously, and dose–response curves were obtained by their cultivation on 96 well plates in a 2-fold seriel dilution of the appropriate drug.

[2] = test system: Trypanosoma brucei bloodstream forms; test: Drug sensitivity assay, dose–response curves, T. brucei; type: cell-based; conditions: for EC50: bloodstream forms, mean, n ≥ 3; for T. brucei selectivity: relative to human BJ fibroblast EC50
Text: as §1

T. gondii mitochondrion = test: Toxoplasma immunofluorescence assay of organelle morphology; type: cell-based, Toxoplasma gondii; conditions: 24 h at 3× EC50; DFX at 60 nM
Protocol: For IFAs to assess organelle morphology, coverslips seeded with HFFs were infected with T. gondii tachyzoites, and 3 h later, compounds were added (at 3 times their respective EC50). Intracellular parasites and host cell monolayers were then fixed 24 h later with 4% (w/v) PFA (diluted in PBS) for 20 min. After fixation, cells were permeabilized with 0.3% (v/v) Triton X-100 (diluted in PBS) for 10 min. Coverslips were blocked with 2% (w/v) bovine serum albumin (BSA) for 1 h prior to immunolabeling with a primary antibody for 1 h. After 3 washes in PBS, a corresponding secondary antibody was incubated for 1 h. Coverslips were then incubated with 1 μg/mL of Hoechst stain for 5 min before 3 washes in PBS and, finally, mounted using Immu-Mount (Thermo Fisher) onto microscope slides. Primary antibodies used were prepared in 2% BSA (diluted in PBS) and used at the following concentrations: the apicoplast was stained using rabbit anti-PDH-E2 (1:500), the mitochondrion was stained using mouse anti-F1β ATPase (1:1000, gift of P. Bradley). Anti-mouse and anti-rabbit secondary antibodies were all from Thermo Fisher and were diluted at 1:4000. Image acquisition was performed with a Zeiss Axio Observer inverted microscope equipped with a Zeiss Axiocam 712 camera and 63×/1.4 or 100×/1.4 Oil Plan Achromat objectives. Images were processed with Zen Blue v3.6 software (Zeiss). Z-stack acquisitions were processed by a maximum-intensity orthogonal projection. Adjustments of brightness and contrast were applied uniformly, and paired images were acquired with the same exposure time. Quantifications of mitochondrial morphology were performed by microscopic observation of a series of at least 100 parasites, and data from three independent biological replicates was acquired and plotted using Prism 8.0 (GraphPad Software). Statistical significance was determined using one-way ANOVA with Tukey’s multiple-comparison test.

[3] = test system: Leishmania mexicana axenic amastigotes; test: Drug sensitivity assay, dose–response curves, L. mexicana; type: cell-based
Text: as §1

[4] = test system: Toxoplasma gondii tachyzoites (RH strain), intracellular stages; test: T. gondii lytic cycle plaque assay in HFF monolayers; type: cell-based
Protocol: T. gondii tachyzoites of the RH strain were routinely maintained through passages in a human foreskin fibroblasts (HFFs) monolayer (ATCC CRL-1634). HFFs and parasites were cultured in standard Dulbecco’s Modified Eagle Medium (DMEM), supplemented with 5% decomplemented fetal bovine serum (FBS), 2 mM L-glutamine, 100 U/mL penicillin, and 100 μg/mL streptomycin (Gibco) at 37 °C and with 5% CO2 in an incubator with a controlled atmosphere.
The lytic cycle of T. gondii tachyzoites was assessed by a plaque assay as described previously. Briefly, tachyzoites were allowed to invade monolayers of HFFs for 3 h before addition of the compounds or the DMSO vehicle and were subsequently cultivated for 7 days at 37 °C and 5% CO2. They were then fixed with 4% (w/v) paraformaldehyde (PFA, diluted in phosphate-buffered saline (PBS)) for 20 min and stained with a 0.1% crystal violet solution (V5265, Sigma-Aldrich), washed, and air-dried before imaging under an Olympus MVX10 microscope.
Figure S1. EC50 determination of selected compounds in Toxoplasma.
B) EC50 curves based on plaque
area measured from three independent plaque assays. Data are mean ± standard deviation. C)
vacuoles were counted for each con dition. Values represented are mean ± standard deviation of […]

[5] = test system: Babesia divergens intracellular stages; test: Drug sensitivity assay, dose–response curves, B. divergens; type: cell-based
Text: as §1

[6] = test system: T. brucei 427 bloodstream form mitochondria; test: Mitochondrial membrane potential in T. brucei (TMRE, flow cytometry); type: cell-based, Trypanosoma brucei; conditions: 24 h at 3× EC50
Protocol: The mitochondrial membrane potential of T. brucei 427 bloodstream form was assessed using the fluorescent probe TMRE (Thermo Fisher Scientific) as described in ref . […] Untreated cells and cells preincubated with a 50 μM CCCP uncoupler for 30 min were used as negative and positive controls, respectively. Approximately 1 × 10^6 cells were incubated with 60 nM TMRE for 30 min, washed 1× with sterile PBS, and 5,000 events were measured on a Guava EasyCyte 8HT flow cytometer (Luminex) using a 488 nm excitation laser and a 583/26 nm detector. Median fluorescence was plotted against an untreated culture using Prism 8.0 (GraphPad Software), and statistical significance was determined using RM one-way ANOVA with Geisser–Greenhouse correction. The experiment was performed in three biologically independent replicates.

[7] = test system: Plasmodium falciparum intracellular stages; test: Drug sensitivity assay, dose–response curves, P. falciparum; type: cell-based
Text: as §1

[8] = test system: Trypanosoma gambiense bloodstream forms; test: Drug sensitivity assay, dose–response curves, T. gambiense; type: cell-based
Text: as §1

[9] = intracellular stages, mean, n ≥ 3

With N#CC(C#N)=NNc1ccc(OC(F)(F)F)cc1 [FCCP, carbonyl cyanide p-trifluoromethoxyphenylhydrazone, reference compound] the “Mitotracker staining of T. gondii, microscopic observation” value [1] was “diffuse Mitotracker signal”.
CC(=O)N(O)CCCCCNC(=O)CCC(=O)N(O)CCCCCNC(=O)CCC(=O)N(O)CCCCCNCCCCCCCCCC[P+](c1ccccc1)(c1ccccc1)c1ccccc1 [compound 1, triphenylphosphine-C10-DFO] showed an EC50 (Human BJ Fibroblast) greater than 25 µM and an EC50 [2] of 0.882 µM.
CC(=O)N(O)CCCCCNC(=O)CCC(=O)N(O)CCCCCNC(=O)CCC(=O)N(O)CCCCCN(CCCCCCCCCC[P+](c1ccccc1)(c1ccccc1)c1ccccc1)CCCCCCCCCC[P+](c1ccccc1)(c1ccccc1)c1ccccc1.[Cl-].[Cl-] [compound 2, (triphenylphosphine-C10)2-DFO] was tested, and the EC50 (Human BJ Fibroblast) was 8.91 µM, the EC50 [2] was 0.0569 µM and the T. brucei selectivity [2] was 156.
CC(=O)N(O)CCCCCNC(=O)CCC(=O)N(O)CCCCCNC(=O)CCC(=O)N(O)CCCCCN(CCCCCCCCCCCC[P+](c1ccccc1)(c1ccccc1)c1ccccc1)CCCCCCCCCCCC[P+](c1ccccc1)(c1ccccc1)c1ccccc1.Cl.[Cl-].[Cl-] [compound 6, (triphenylphosphine-C12)2-DFO] gave an EC50 (Human BJ Fibroblast) of 3.63 µM, an EC50 [2] of 0.0731 µM and a T. brucei selectivity [2] of 50.
CC(=O)N(O)CCCCCNC(=O)CCC(=O)N(O)CCCCCNC(=O)CCC(=O)N(O)CCCCCN(CCCCCCCCCC[P+](Cc1ccccc1)(Cc1ccccc1)Cc1ccccc1)CCCCCCCCCC[P+](Cc1ccccc1)(Cc1ccccc1)Cc1ccccc1.Cl.[Cl-].[Cl-] [compound 7, (tribenzylphosphine-C10)2-DFO] showed an EC50 (Human BJ Fibroblast) of 2.55 µM, an EC50 [2] of 0.186 µM and a T. brucei selectivity [2] of 14.
CCCCCCCC[P+](CCCCCCCC)(CCCCCCCC)CCCCCCCCCCN(CCCCCCCCCC[P+](CCCCCCCC)(CCCCCCCC)CCCCCCCC)CCCCCN(O)C(=O)CCC(=O)NCCCCCN(O)C(=O)CCC(=O)NCCCCCN(O)C(C)=O.Cl.[Cl-].[Cl-] [compound 8, (trioctylphosphine-C10)2-DFO] showed an EC50 (Human BJ Fibroblast) of 2.92 µM, an EC50 [2] of 0.134 µM and a T. brucei selectivity [2] of 22.
In the case of Oc1ccccc1-c1nc(-c2ccccc2O)n(CCCCCCCCCC[P+](c2ccccc2)(c2ccccc2)c2ccccc2)n1.[Br-] [compound 11, triphenylphosphineBr-C10-norbenzoic-DFX], the “Mitotracker staining of T. gondii, microscopic observation” value [1] is reported as “strong decrease in Mitotracker staining”, the “morphology of the T. gondii mitochondrion” value (T. gondii mitochondrion) is reported as “altered the morphology of the organelle” and the EC50 ([3]; axenic amastigotes, mean, n ≥ 3) is reported as 0.132 µM. For the same compound, the L. mexicana selectivity ([3]; relative to fibroblasts) was 16, the EC50 ([4]; intracellular stages, plaque assay in HFFs, 7 days, n ≥ 3) was 0.005 µM and the T. gondii selectivity ([4]; relative to fibroblasts) was 422. The EC50 [5, 9] was 0.0172 µM, the B. divergens selectivity ([5]; relative to fibroblasts) was 122 and the “mitochondrial membrane potential of T. brucei (relative to untreated)” value [6] was “less than 50%”. The EC50 [7, 9] was 0.238 µM, the P. falciparum selectivity ([7]; relative to fibroblasts) was 9 and the EC50 (Human BJ Fibroblast) was 2.11 µM. It also gave an EC50 ([8]; bloodstream forms, mean, n ≥ 3) of 0.0075 µM, a T. gambiense selectivity ([8]; relative to fibroblasts) of 282 and an EC50 [2] of 0.0055 µM. The T. brucei selectivity [2] was greater than 300.
With O=C(NCCCCCCCC[P+](c1ccccc1)(c1ccccc1)c1ccccc1)c1ccc(-n2nc(-c3ccccc3O)nc2-c2ccccc2O)cc1.[Cl-] [compound 12, triphenylphosphine-C8-DFX] the EC50 (Human BJ Fibroblast) was 1.97 µM, the EC50 [2] was 0.0358 µM and the T. brucei selectivity [2] was 55.
O=C(NCCCCCC[P+](c1ccccc1)(c1ccccc1)c1ccccc1)c1ccc(-n2nc(-c3ccccc3O)nc2-c2ccccc2O)cc1.[Cl-] [compound 13, triphenylphosphine-C6-DFX] gave an EC50 (Human BJ Fibroblast) of 15 µM, an EC50 [2] of 0.0498 µM and a T. brucei selectivity [2] of 302.
For CC(=O)N(O)CCCCCNC(=O)CCC(=O)N(O)CCCCCNC(=O)CCC(=O)N(O)CCCCCN [compound 16, deferoxamine, reference compound], the EC50 (Human BJ Fibroblast) was greater than 25 µM and the EC50 ([2]; Trypanosoma brucei) was greater than 25 µM.
With O=C(O)c1ccc(-n2nc(-c3ccccc3O)nc2-c2ccccc2O)cc1 [compound 17, deferasirox, reference compound] the “T. gondii mitochondrial membrane potential, flow cytometric quantification of Mitotracker labeling” value ([1]; DFX at 60 nM) was “no specific impact”, the “morphology of the T. gondii mitochondrion” value (T. gondii mitochondrion) was “largely preserved” and the EC50 (Human BJ Fibroblast) was greater than 25 µM. The EC50 ([2]; Trypanosoma brucei) was 8.79 µM.
In the case of “(dimethylphenylphosphine-C10)2-DFO [compound 9]”, the EC50 (Human BJ Fibroblast) is reported as greater than 25 µM, the “decrease in antiparasitic activity compared with compound 2” value ([2]; T. brucei) is reported as roughly 20 fold and the EC50 [2] is reported as 1.15 µM.
(tributylamine-C10)2-DFO [compound 3] was tested, and the EC50 (Human BJ Fibroblast) was 8.14 µM, the EC50 [2] was 0.0736 µM and the T. brucei selectivity [2] was 111.
In the case of “(tributylphosphine-C10)2-DFO [compound 4]”, the EC50 (Human BJ Fibroblast) is reported as 2.84 µM, the EC50 [2] is reported as 0.281 µM and the T. brucei selectivity [2] is reported as 10.
Work on “(tricylohexylphosphine-C10)2-DFO [compound 5]” yielded an EC50 (Human BJ Fibroblast) of 3.08 µM, an EC50 [2] of 0.052 µM and a T. brucei selectivity [2] of 59.
Work on “(triphenylphosphine-C10-triazole)2-DFO [compound 10]” yielded an EC50 (Human BJ Fibroblast) of 4.13 µM, an EC50 [2] of 0.134 µM and a T. brucei selectivity [2] of 31.
